Patent publication US20050176655A1, “Novel macrolide derivatives havaing effect of potentiating antifungal activity” (priority 2002, published 2005)

Tests used:
Experiment in all cases: Paper disk method, enhancing action for activities of azole antifungal agents
Assay type in all cases: cell-based
[1] = system: Candida albicans ATCC 64548; settings: 24 hours; for Inhibition activity (inhibition ring mm) C. albicans ATCC 64548 GYF / Transparency of the inhibition ring C. albicans ATCC 64548 GYF: fluconazole 0.5 μg/ml; for Inhibition activity (inhibition ring mm) C. albicans ATCC 64548 GYM / Transparency of the inhibition ring C. albicans ATCC 64548 GYM: miconazole 0.03 μg/ml
Summary of the method: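 GY agar (pH 6.0) seeded with C. albicans ATCC 64548 precultured in Waksman broth at 27° C for 40 hours, supplemented with sub-growth-inhibitory miconazole 0.03 μg/ml or fluconazole 0.5 μg/ml. Paper disk method; inhibition-zone diameter (mm) read after 24 hours, transparency graded A–E.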

[2] = system: fluconazole resistant Candida albicans ATCC 64550; settings: 24 hours; for Inhibition activity (inhibition ring mm) C. albicans ATCC 64550 GYF / Transparency of the inhibition ring C. albicans ATCC 64550 GYF: fluconazole 30 μg/ml; for Inhibition activity (inhibition ring mm) C. albicans ATCC 64550 GYM / Transparency of the inhibition ring C. albicans ATCC 64550 GYM: miconazole 0.15 μg/ml
Method: (§1) Test organisms used were Candida albicans ATCC 64548, fluconazole resistant Candida albicans ATCC 64550 and Aspergillus niger ATCC 6275. Candida spp. were cultured in Waksman broth (glucose 2.0%, peptone 0.5%, dry yeast 0.3%, meat extract 0.5%, NaCl 0.5% and CaCO3 0.3%, pH 7.0) at 27° C. for 40 hours, then 0.1% thereof was inoculated on GY agar medium (glucose 1.0%, yeast extract 0.5% and agar 0.8%, pH 6.0). Spore suspension 0.2% of Aspergillus niger ATCC 6275 was inoculated on GY agar medium.
(§2) Azole antifungal agents used were miconazole (Sigma Inc., the U.S.) and fluconazole (ICN Pharmaceuticals, Inc., the U.S.), and were added at concentrations without affecting growth on each test organisms follows.
Candida albicans ATCC 64550: miconazole 0.15 μg/ml or fluconazole 30 μg/ml.
(§3) In the above medium, a medium added with miconazole to GY medium (control) is designated as GYM, and a medium added with fluconazole is designated as GYF. Activities were assessed by means of paper disk method (thickness: 8 mm, ADVANTEC MFS INC., Japan). Diameter of inhibition ring is expressed with mm unit after culturing Candida spp. for 24 hours and Aspergillus niger ATCC 6275 for 48 hours. Transparency of the inhibition ring is assessed with 5 degrees of A, B, C, D and E (transparence<A<B<C<D<E<opaque).

[3] = system: Aspergillus niger ATCC 6275; settings: 48 hours; for Inhibition activity (inhibition ring mm) A. niger ATCC 6275 GYF / Transparency of the inhibition ring A. niger ATCC 6275 GYF: fluconazole 10 μg/ml; for Inhibition activity (inhibition ring mm) A. niger ATCC 6275 GYM / Transparency of the inhibition ring A. niger ATCC 6275 GYM: miconazole 0.1 μg/ml; for Inhibition activity (inhibition ring mm) A. niger ATCC 6275 GY / Transparency of the inhibition ring A. niger ATCC 6275 GY: GY medium (control, no azole)
Method: as §1, §2
Aspergillus niger ATCC 6275: miconazole 0.1 μg/ml or fluconazole 10 μg/ml.
as §3

Row | SMILES | Inhibition activity (inhibition ring mm) C. albicans ATCC 64548 GYM ([1]; 10 μg/8 mm disk) | Transparency of the inhibition ring C. albicans ATCC 64548 GYM ([1]; 10 μg/8 mm disk) | Inhibition activity (inhibition ring mm) C. albicans ATCC 64548 GYF ([1]; 50 μg/8 mm disk) | Transparency of the inhibition ring C. albicans ATCC 64548 GYF ([1]; 50 μg/8 mm disk) | Inhibition activity (inhibition ring mm) C. albicans ATCC 64548 GYM ([1]; 50 μg/8 mm disk) | Transparency of the inhibition ring C. albicans ATCC 64548 GYM ([1]; 50 μg/8 mm disk) | Inhibition activity (inhibition ring mm) C. albicans ATCC 64550 GYF ([2]; 10 μg/8 mm disk) | Transparency of the inhibition ring C. albicans ATCC 64550 GYF ([2]; 10 μg/8 mm disk) | Inhibition activity (inhibition ring mm) C. albicans ATCC 64550 GYF ([2]; 50 μg/8 mm disk) | Transparency of the inhibition ring C. albicans ATCC 64550 GYF ([2]; 50 μg/8 mm disk) | Inhibition activity (inhibition ring mm) C. albicans ATCC 64550 GYM ([2]; 50 μg/8 mm disk) | Transparency of the inhibition ring C. albicans ATCC 64550 GYM ([2]; 50 μg/8 mm disk) | Inhibition activity (inhibition ring mm) A. niger ATCC 6275 GYF ([3]; 10 μg/8 mm disk) | Transparency of the inhibition ring A. niger ATCC 6275 GYF ([3]; 10 μg/8 mm disk) | Inhibition activity (inhibition ring mm) A. niger ATCC 6275 GYM ([3]; 10 μg/8 mm disk) | Transparency of the inhibition ring A. niger ATCC 6275 GYM ([3]; 10 μg/8 mm disk) | Inhibition activity (inhibition ring mm) A. niger ATCC 6275 GYF ([3]; 50 μg/8 mm disk) | Transparency of the inhibition ring A. niger ATCC 6275 GYF ([3]; 50 μg/8 mm disk) | Inhibition activity (inhibition ring mm) A. niger ATCC 6275 GYM ([3]; 50 μg/8 mm disk) | Transparency of the inhibition ring A. niger ATCC 6275 GYM ([3]; 50 μg/8 mm disk) | other results
1 | CCCCCC(=O)OC1C(C)OC(OC2C(C)C(=O)OC(C(C)(O)C(CC)OC(=O)CCCCC)C(C)C3=C(C)CC(C)(O3)C(OC3OC(C)CC(N(C)C)C3OC(C)=O)C2C)CC1(C)OC (stereo not shown) [Compound 772, 2′-O-acetyl-4″,13-Di-O-hexanoyl-8,9-Anhydro-pseudoerythromycin A 6,9-hemiketal] | 14 mm | B (Growth of test organism was inhibited 75% of more and 95% or less.) | 10 mm | D (Growth of test organism was inhibited 35% or more and 55% or less.) | 12 mm | B (Growth of test organism was inhibited 75% of more and 95% or less.) | 11 mm | E (Growth of test organism was inhibited 35% or less.) | 14 mm | B (Growth of test organism was inhibited 75% of more and 95% or less.) | 12 mm | A (Growth of test organism was inhibited 95% or more.) | 10 mm | D (Growth of test organism was inhibited 35% or more and 55% or less.) | 12 mm | E (Growth of test organism was inhibited 35% or less.) | 10 mm | D (Growth of test organism was inhibited 35% or more and 55% or less.) | 13 mm | A (Growth of test organism was inhibited 95% or more.) | Inhibition activity (inhibition ring mm) C. albicans ATCC 64548 GYF ([1]; 10 μg/8 mm disk): 9 mm; Transparency of the inhibition ring C. albicans ATCC 64548 GYF ([1]; 10 μg/8 mm disk): D (Growth of test organism was inhibited 35% or more and 55% or less.); Inhibition activity (inhibition ring mm) A. niger ATCC 6275 GY ([3]; 50 μg/8 mm disk): 12 mm; Transparency of the inhibition ring A. niger ATCC 6275 GY ([3]; 50 μg/8 mm disk): E (Growth of test organism was inhibited 35% or less.)
2 | CCC(OC(=O)c1ccccc1)C(C)(O)C1OC(=O)C(C)C(OC2CC(C)(OC)C(OC(=O)c3ccccc3)C(C)O2)C(C)C(OC2OC(C)CC(N(C)C)C2OC(C)=O)C2(C)CC(C)=C(O2)C1C (stereo not shown) [Compound 773, 2′-O-acetyl-4″,13-Di-O-benzoyl-8,9-Anhydro-pseudoerythromycin A 6,9-hemiketal] | 13 mm | C (Growth of test organism was inhibited 55% or more and 75% or less.) | 12 mm | E (Growth of test organism was inhibited 35% or less.) | 16 mm | A (Growth of test organism was inhibited 95% or more.) | 11 mm | E (Growth of test organism was inhibited 35% or less.) | 15 mm | A (Growth of test organism was inhibited 95% or more.) | 14 mm | A (Growth of test organism was inhibited 95% or more.) | 10 mm | E (Growth of test organism was inhibited 35% or less.) | 13 mm | E (Growth of test organism was inhibited 35% or less.) | 15 mm | E (Growth of test organism was inhibited 35% or less.) | 15 mm | B (Growth of test organism was inhibited 75% of more and 95% or less.) | Inhibition activity (inhibition ring mm) C. albicans ATCC 64550 GYM ([2]; 10 μg/8 mm disk): 10 mm; Transparency of the inhibition ring C. albicans ATCC 64550 GYM ([2]; 10 μg/8 mm disk): C (Growth of test organism was inhibited 55% or more and 75% or less.)
3 | CCC(=O)OC1C(C)OC(OC2C(C)C(=O)OC(C(C)(O)C(CC)OC(=O)CC)C(C)C3=C(C)CC(C)(O3)C(OC3OC(C)CC(N(C)C)C3O)C2C)CC1(C)OC (stereo not shown) [Compound 776, 4″,13-Di-O-propionyl-8,9-Anhydro-pseudo-erythromycin A 6,9-hemiketal] |  |  |  |  | 11 mm | D (Growth of test organism was inhibited 35% or more and 55% or less.) |  |  | 9 mm | E (Growth of test organism was inhibited 35% or less.) | 11 mm | E (Growth of test organism was inhibited 35% or less.) | 16 mm | E (Growth of test organism was inhibited 35% or less.) |  |  | 16 mm | E (Growth of test organism was inhibited 35% or less.) | 20 mm | C (Growth of test organism was inhibited 55% or more and 75% or less.) | Inhibition activity (inhibition ring mm) C. albicans ATCC 64548 GYF ([1]; 100 μg/8 mm disk): 15 mm; Transparency of the inhibition ring C. albicans ATCC 64548 GYF ([1]; 100 μg/8 mm disk): E (Growth of test organism was inhibited 35% or less.)
4 | CCCCCC(=O)OC1C(C)OC(OC2C(C)C(=O)OC(C(C)(O)C(CC)OC(=O)CCCCC)C(C)C3=C(C)CC(C)(O3)C(OC3OC(C)CC(N(C)C)C3O)C2C)CC1(C)OC (stereo not shown) [Compound 777, 4″,13-Di-O-hexanoyl-8,9-Anhydro-pseudo-erythromycin A 6,9-hemiketal] | 11 mm | D (Growth of test organism was inhibited 35% or more and 55% or less.) | 11 mm | D (Growth of test organism was inhibited 35% or more and 55% or less.) | 14 mm | A (Growth of test organism was inhibited 95% or more.) | 11 mm | D (Growth of test organism was inhibited 35% or more and 55% or less.) | 14 mm | A (Growth of test organism was inhibited 95% or more.) | 14 mm | A (Growth of test organism was inhibited 95% or more.) | 11 mm | E (Growth of test organism was inhibited 35% or less.) | 11 mm | E (Growth of test organism was inhibited 35% or less.) | 17 mm | D (Growth of test organism was inhibited 35% or more and 55% or less.) | 13 mm | B (Growth of test organism was inhibited 75% of more and 95% or less.) | Inhibition activity (inhibition ring mm) A. niger ATCC 6275 GY ([3]; 50 μg/8 mm disk): 9 mm; Transparency of the inhibition ring A. niger ATCC 6275 GY ([3]; 50 μg/8 mm disk): E (Growth of test organism was inhibited 35% or less.)
